Measured values from ChEMBL document CHEMBL5143572, “Synthesis and evaluation of new potential anti-pseudo-allergic agents” (Bioorg Med Chem Lett, 2022).
Activity calls are given as the source filed them. The calls are words filed in the database; no cut-off is given here.

Columns and labels:
LAD2 [1] = test: Antiallergic activity in human LAD2 cells assessed as inhibition of C48/80-induced beta-hexosaminidase release; format: functional, cell-based; conditions: dose 0.1-100 µM
LAD2 [2] = test: Cytotoxicity against human LAD2 cells at 0.1 to 100 uM measured after 24 hrs; format: toxicity, cell-based; conditions: lad2, 24 h, dose 0.1-100 µM
LAD2 [3] = test: Antiallergic activity in human LAD2 cells assessed as inhibition of C48/80-induced histamine release; format: functional, cell-based; conditions: dose 0.1-100 µM, DDE = dose-dependent effect
[4] = biological target: T1, Mas-related G-protein coupled receptor member X2 (Homo sapiens) (UniProt Q96LB1); test: Antagonist activity at MRGPRX2 (unknown origin) expressed in HEK293 cells assessed as inhibition of C48/80-induced Ca2+- mobilization; format: functional, cell-based; conditions: filed as antagonist, dose 0.1-100 µM, DDE = dose-dependent effect
T1 sequence (whole entry): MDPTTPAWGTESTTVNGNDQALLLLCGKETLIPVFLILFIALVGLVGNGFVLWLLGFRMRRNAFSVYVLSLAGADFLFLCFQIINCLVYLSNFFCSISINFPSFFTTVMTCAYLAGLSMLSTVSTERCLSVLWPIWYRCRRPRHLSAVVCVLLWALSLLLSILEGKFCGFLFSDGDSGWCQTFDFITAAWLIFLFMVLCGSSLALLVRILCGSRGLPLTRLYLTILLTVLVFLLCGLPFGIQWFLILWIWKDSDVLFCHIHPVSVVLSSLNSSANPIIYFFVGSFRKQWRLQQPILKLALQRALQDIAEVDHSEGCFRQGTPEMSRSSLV

inhibition [4] | SMILES | inhibition (LAD2 [1]) | Activity (LAD2 [2]) | inhibition (LAD2 [1]; DDE = dose-dependent effect) | inhibition (LAD2 [3])
 | O=C(Nc1ccc(Sc2ccc3c(=O)[nH]cnc3c2)cc1)Nc1ccc(Cl)c(C(F)(F)F)c1 | Active |  |  | 
Dde | O=C(Nc1ccc(Cl)c(C(F)(F)F)c1)Nc1nc(COc2ccc(CCCCn3ccnn3)cc2)co1 |  | Non-Toxic | Dde | Dde
 | FC(F)(F)c1ccc(/C=C/c2nc(COc3ccc(CCCCn4ccnn4)cc3)co2)cc1 | Active |  |  | 
Dde | O=C(Nc1ccc(C(F)(F)F)cc1)Nc1nc(COc2ccc(CCCCn3ccnn3)cc2)co1 |  | Non-Toxic | Dde | Dde
